Results published in patent US20220008401A1, “COMPOSITIONS AND METHODS FOR TREATING PULMONARY DISEASE WITH MATRIX METALLOPROTEINASE INHIBITORS” (DARSHA LLC, priority 2019, published 2022).

Assays:
[1] = system: mice exposed to cigarette smoke; assay: Cigarette smoke exposure model, BALF total cell counts; format: in vivo; conditions: cigarette smoke 10 days; inhaled Compound 1 once a day for last four days; sacrifice 1 hour after final dose
Protocol: In order to determine if the observed effects of Compound 1 were specific to a model of acute lung injury, we exposed mice to cigarette smoke, a more chronic model of lung injury, for 10 days while treating once a day with inhaled Compound 1 for the last four days of smoke exposure. Mice were sacrificed 1 hour following their final dose of Compound 1 on the 10th day. BALF was collected and total cell counts were performed. […] (*p<0.05).

[2] = system: neutrophils (PMN); assay: Myeloperoxidase staining of lung sections, LPS-injured mice, single inhaled dose; format: in vivo; conditions: LPS treated mice
Protocol: Since substantial literature indicates neutrophils (PMN) are critical mediators of inflammatory damage in injured lung, we next assessed if inhaled Compound 1 attenuated PMN infiltration of LPS injured lungs. To achieve this, mice were injured with LPS and 24 h later received a single inhaled dose of Compound 1 and were sacrificed 1 hour after dosing. PMN infiltration was assessed by examining lung sections (qualitatively) and BALF (quantitatively) from Compound 1 treated and untreated mice. To assess the effects of Compound 1 on PMN in situ, paraffin embedded lung sections (prepared as described previously) were stained for myeloperoxidase, a PMN marker.

[3] = system: caspase 3; assay: Western blot for cleaved caspase 3 in lung homogenates of LPS-injured mice; format: in vivo
Protocol: It was also examined if Compound 1 would reduce the levels of apoptosis associated with injury by LPS. Because the time line of apoptosis takes hours, an additional set of mice were injured with LPS (1.5 mg/kg of 1 mg/ml solution in sterile PBS) followed by initiation of treatment with Compound 1 twenty four hours later. The mice received four doses of Compound 1 (one dose every six hours over a total duration of 24 hours in accordance with the treatment schedule described below with reference to FIG. 8B). The mice were sacrificed and their lungs were harvested and assessed for caspase 3 activity by western blot for cleaved caspase 3 and a caspase 3/7 activity assay obtained from ThermoFisher.
FIG. 5A is a representative western blot of lung homogenates that were equalized for protein content (i.e., normalized to actin) and probed for whole and cleaved caspase 3. Each lane represents a lung homogenate sample (40 μg) from an individual mouse. Lane 510 depicts a lung homogenate sample from a control mouse that was not administered LPS or Compound 1. Lanes 520 and 530 depict lung homogenate samples from two mice that were administered LPS but were not treated with Compound 1. […]
FIG. 5B is the relative densitometric quantification of western blots for cleaved caspase 3: whole caspase ratio. […]

[4] = Lung homogenate levels after nebulized Compound 1, Example 5 (mass spectroscopy); format: in vivo, C57/BL6 mice; conditions: for Compound 1 levels in the lung: nebulized, dose groups pooled, lung homogenate, n=6
Protocol: In this test, C57/BL6 mice were divided into three treatment groups, where they received nebulized Compound 1 at high dose (10 mg/kg), medium dose (5 mg/kg) and, low dose (2 mg/kg). Animals were sacrificed at 1, 3 and, 5 hours (n=3 mice per time point) followed by collection of lung homogenates. Homogenates were analyzed by mass spectroscopy to determine Compound 1 levels in the lung.

[5] = system: neutrophils; assay: BrdU pulse-chase labeling of newly synthesized neutrophils in BALF of LPS-exposed mice; format: in vivo; conditions: LPS treated mice, n=3 (49.3±0.87% without treatment)
Protocol: To examine the hypothesis that reduced neutrophil counts in response to Compound 1 treatment resulted from decreased cell migration from the pulmonary circulation, pulse-chase labeling of newly synthesized neutrophils in LPS exposed animals was performed. LPS or saline was nasally instilled into mice which were then allowed to recover for 24 hours. Following this, an intraperitoneal injection (IP injections) of bromodeoxyuridine (BrdU) was administered and animals were allowed to rest for 2.5 hours. A 2.5-hour rest period was selected since it was previously determined that BrdU labeled neutrophils take about 3 hours to reach and infiltrate the lungs. At 2.5 hours animals received inhaled Compound 1 or PBS and were sacrificed at either 15- or 45 minutes post-treatment. Cytospin slides were generated from BALF and immunofluorescently stained for BrdU and MPO to identify neutrophils. Confocal images were taken of cytospins stained for BrdU and MPO (myeloperoxidase). The number of BrdU (+) and BrdU (−) neutrophils was quantified.

[6] = system: LPS injured mice; assay: Lung wet:dry weight ratio, LPS-injured mice, q6h x 4 doses; format: in vivo; conditions: LPS then Compound 1 every 6 hours for 4 doses; right lung; n=5 (LPS alone 19.44±1.6, PBS 7.5±0.12)
Protocol: Based on the data, the effect of a 6 hour dosing interval (q6h) of Compound 1 on injured mice lung was explored. FIG. 8B schematizes the experimental LPS injury/Compound 1 treatment workflow utilized unless otherwise indicated. Briefly, mice were nasally instilled with LPS (1.5 mg/kg) followed by initiation of Compound 1 treatment 24 hours later (i.e., after a 24 hours rest period). Four doses of Compound 1 (12 mg/kg) were administered via nebulizer every 6 hours to maintain a constant presence of compound in the lung. PBS was administered as a control. Mice were sacrificed 6 hours following the fourth dose. A major feature of ALI/ARDS is non-cardiogenic pulmonary edema resulting in profound hypoxemia. […] We next investigated if attenuation of edema occurred with the alternative treatment schedule where LPS-injured mice were treated with Compound 1 every 6 hours for 4 doses. Total lung edema was determined by assessing lung wet:dry ratios under each experimental condition. Following completion of Compound 1 treatment, the right lung was removed and immediately weighed followed by desiccation for 72 hours and weighed a second time to determine the dry weight. Wet:dry weight ratios were then calculated.

butanamide, N-hydroxy-2-[[(4-hydroxyphenyl)sulfonyl](3-pyridinylmethyl)amino]-3-methyl, hydrochloride, (2R) [Compound 1]
smoke induced increase in BALF cell counts [1]: failed to attenuate | PMN infiltration into the lung parenchyma (myeloperoxidase staining) [2]: attenuates PMN infiltration into the lung parenchyma | caspase 3 activation (cleaved caspase-3, western blot) ([3]; LPS 1.5 mg/kg, four inhaled doses, one every six hours, starting 24 hours after LPS, lung homogenate): absent or reduced | cleaved:whole caspase 3 ratio (densitometry) ([3]; LPS-CGS group, four inhaled doses q6h starting 24 hours after LPS, n≥5 (LPS-PBS 2.57±1.15, PBS-PBS 0.25±0.15)): 0.59±0.18 AU | Compound 1 levels in the lung ([4]; 1 h post-inhalation): 310.7 ± 85.38 ng/g | Compound 1 levels in the lung ([4]; 3 h post-inhalation): 49.03 ± 15.54 ng/g | Compound 1 levels in the lung ([4]; 5 h post-inhalation): 24.48 ± 9.96 ng/g | effect of dose size on Compound 1 concentration in lung ([4]; high (10 mg/kg), medium (5 mg/kg), low (2 mg/kg) nebulized dose, 1, 3, 5 hours): no significant effect | percentage of BrdU (+) neutrophils ([5]; 15 minutes post inhaled treatment): 16.7±3.6% | percentage of BrdU (+) neutrophils ([5]; 45 minutes post inhaled treatment): 22.7±2.5% | wet:dry weight ratio [6]: 11.80±0.86
